Reference: PMC6629894, “Ruthenium Complexes Containing Heterocyclic Thioamidates Trigger Caspase-Mediated Apoptosis Through MAPK Signaling in Human Hepatocellular Carcinoma Cells” (Frontiers in Oncology, 2019)
Like-named read-outs stand apart in the source and are kept apart here. Marks after values point to notes of the source that are not given here.

Legend:
[1] = system: B16-F10 (mouse melanoma); test: Alamar blue cytotoxicity assay, 72 h; assay type: cell-based
Text: (§1) The cell lines HepG2 (human hepatocellular carcinoma), HL-60 (human promyelocytic leukemia), K-562 (human chronic myelogenous leukemia), B16-F10 (mouse melanoma), MCF-7 (human breast carcinoma), HCT116 (human colon carcinoma), HSC-3 (human oral squamous cell carcinoma), SCC-4 (human oral squamous cell carcinoma), MRC-5 (human lung fibroblast), WT SV40 MEF (wild-type immortalized mouse embryonic fibroblast), and BAD KO SV40 MEF (BAD gene knockout immortalized mouse embryonic fibroblasts) were obtained from the American Type Culture Collection (ATCC, Manassas, VA, USA). Cells were cultured in RPMI 1640 medium (Gibco-BRL, Gaithersburg, MD, USA) with 10% fetal bovine serum (Life, Carlsbad, CA, USA), 2 mM L-glutamine (Vetec Química Fina, Duque de Caxias, RJ, Brazil) and 50 μg/mL gentamycin (Life). For all experiments, adherent cells were collected by treatment with 0.25% trypsin-EDTA solution (Gibco-BRL). All cell lines were cultured in flasks at 37°C in 5% CO2 and were subcultured every 3–4 days to maintain exponential growth. All cell lines were tested for mycoplasma using a mycoplasma staining kit (Sigma-Aldrich Co.) to validate that the cells that were used were free from contamination.
(§2) Cytotoxicity was measured colorimetrically using an Alamar blue method that was performed as previously described ([20], [21]). Cells were seeded in 96-well plates for all experiments (7 × 10^4 cells/mL for adherent cells or 3 × 10^5 cells/mL for suspension cells in 100 μL of medium) and incubated overnight at 37°C with 5% CO2 to allow for adherence. The complexes were dissolved in 0.5% dimethyl sulfoxide (DMSO, Vetec Química Fina) at eight different concentrations from 0.19 to 25 μg/mL and were added to each well and incubated for 72 h. The negative control was treated with the vehicle (0.5% DMSO) that was used to solubilize and dilute the complexes. […] Four (for cell lines) or 24 h (for PBMCs) before the end of incubation, 20 μL of a stock solution (0.312 mg/mL) of resazurin (Sigma-Aldrich Co.) was added to each well. Absorbance was measured at 570 and 600 nm using a SpectraMax 190 Microplate Reader (Molecular Devices, Sunnyvale, CA, USA).

[2] = system: HepG2 (human hepatocellular carcinoma); test: Alamar blue cytotoxicity assay, 72 h; assay type: cell-based
Text: as §1, §2

[3] = system: K-562 (human chronic myelogenous leukemia); test: Alamar blue cytotoxicity assay, 72 h; assay type: cell-based
Text: as §1, §2

[4] = system: multicellular spheroids formed from HepG2 cells; test: 3D multicellular spheroid culture, Alamar blue, 72 h; assay type: cell-based, human; conditions: read-out: IC50 and 95% CI, 3D HepG2 spheroids
Description: HepG2 cells were cultivated as 3D multicellular spheroids in a 96-well plate with a cell-repellent surface. Briefly, 100 μL of a suspension of cells (5 × 10^5 cells/mL) was seeded into a 96-well plate with a cell-repellent surface (Greiner Bio-One, Kremsmünster, Austria) and cultured in RPMI 1640 medium with 10% fetal bovine serum, 2 mM glutamine plus 3% Matrigel (BD Biosciences, San Jose, CA, EUA) and 50 μg/mL gentamycin at 37°C with 5% CO2. Spheroids with stable structures formed after 3 days. Then, the complexes were dissolved in 0.5% DMSO at eight different concentrations from 0.19 to 25 μg/mL, were added to each well and incubated for 72 h. […] At the end of the experiment, morphological changes were examined by light microscopy (Olympus BX41, Tokyo, Japan) using Image-Pro software (Media Cybernetics, Inc. Silver Spring, USA), and cytotoxicity was quantified with the Alamar blue method as described above.

[5] = system: WT SV40 MEF (wild-type immortalized mouse embryonic fibroblast); test: Alamar blue cytotoxicity assay, 72 h; assay type: cell-based; conditions: read-out: IC50 and 95% CI
[6] = system: BAD KO SV40 MEF (BAD gene knockout immortalized mouse embryonic fibroblasts); test: Alamar blue cytotoxicity assay, 72 h; assay type: cell-based; conditions: read-out: IC50 and 95% CI
[7] = system: HepG2 cells; test: Trypan blue exclusion assay; assay type: cell-based, human
Description: For all subsequent in vitro experiments, 2 mL of a suspension of HepG2 cells were seeded (7 × 10^4 cells/mL) and incubated in a 24-well plate overnight to allow the cells to adhere to the plate surface.
In the trypan blue exclusion assay, the number of viable cells and non-viable cells (stained with trypan blue) were counted. Briefly, 90 μL was removed from the cell suspension, and 10 μL of trypan blue (0.4%) was added. Cell counting was performed using a light microscope with a hemocytometer filled with an aliquot of the homogenized cell suspension.

[8] = system: HepG2 cells engrafted in C.B-17 SCID mice; test: Human hepatocellular carcinoma xenograft model; assay type: in vivo; conditions: for mean tumor mass: 21 days (negative control 0.6 ± 0.1 g)
Description: A total of 64 C.B-17 severe-combined immunodeficiency (SCID) mice (females, 25–30 g) were obtained and maintained at the animal facilities from Gonçalo Moniz Institute-FIOCRUZ (Salvador, Bahia, Brazil). Animals were housed in cages with free access to food and water. All animals were kept under a 12:12-h light-dark cycle (lights on at 6:00 a.m.). The animals were treated according to the ethical principles for animal experimentation of SBCAL (Brazilian Association of Laboratory Animal Science), Brazil. The Animal Ethics Committee of Gonçalo Moniz Institute–FIOCRUZ (Salvador, Bahia, Brazil) approved the experimental protocol (number 06/2015). Animal welfare was monitored throughout the study, and the pain and suffering were minimized.

[9] = for Differential leukocytes: Eosinophils / Differential leukocytes: Lymphocytes / Differential leukocytes: Monocytes / Differential leukocytes: Neutrophils / Erythrocytes / Total leukocytes: peripheral blood
Description: A human hepatocellular carcinoma xenograft model was generated by subcutaneously implanting HepG2 cells (1 × 10^7 cells per 500 μL) into the left front armpit of C.B-17 SCID mice. […] The treatments were initiated one day after the cancer cell injection. The animals were treated intraperitoneally (200 μL per animal) once a day for 21 consecutive days. On the 22nd day, the animals were anesthetized, and peripheral blood samples were collected from the brachial artery. Animals were euthanized by an anesthetic overdose, and tumors were excised and weighed.
To evaluate the toxicological aspects, mice were weighed at the beginning and at the end of the experiment. […] Hematological analysis was performed using an Advia 60 hematology system (Bayer, Leverkusen, Germany).

## COc1cccc2c1C(=O)c1c(O)c3c(c(O)c1C2=O)C[C@@](O)(C(=O)CO)C[C@@H]3O[C@H]1C[C@H](N)[C@H](O)[C@H](C)O1 [Doxorubicin, reference compound]
[1]; MRC-5 vs B16-F10
  Selectivity index (SI = IC50 [noncancerous cells]/IC50 [cancer cells]): 2.0
[1]; Mus musculus, B16-F10, 72 h, read-out: IC50 and 95% CI
  IC50: 200 nM
[1]; PBMCs vs B16-F10
  Selectivity index (SI = IC50 [noncancerous cells]/IC50 [cancer cells]): 12.5
[2]; MRC-5 vs HepG2
  Selectivity index (SI = IC50 [noncancerous cells]/IC50 [cancer cells]): 1.3
[2]; PBMCs vs HepG2
  Selectivity index (SI = IC50 [noncancerous cells]/IC50 [cancer cells]): 8.3
[3]; MRC-5 vs K-562
  Selectivity index (SI = IC50 [noncancerous cells]/IC50 [cancer cells]): 0.4
[3]; PBMCs vs K-562
  Selectivity index (SI = IC50 [noncancerous cells]/IC50 [cancer cells]): 2.8
[4]; Homo sapiens
  IC50: 10300 nM
[5]; Mus musculus, Fibroblast
  IC50: 40 nM
[6]; Mus musculus, Fibroblast
  IC50: 400 nM
[7]; 2 μM, 24 h
  reduction of the number of viable cells vs negative control: 53.1%
[7]; 2 μM, 48 h
  reduction of the number of viable cells vs negative control: 74.7%
[8]; 0.3 mg/kg/day i.p., 21 days
  reduction of tumor weight vs negative control: 36.8%
[9]; 0.3 mg/kg/day
  Initial body weight: 22.3 ± 0.4 g
[9]; 0.3 mg/kg/day i.p., 21 days
  Final body weight: 19.5 ± 0.6 g
  Heart relative weight: 0.5 ± 0.02 g/100 g body weight
  Kidney relative weight: 1.5 ± 0.04 g/100 g body weight
  Liver relative weight: 4.8 ± 0.1 g/100 g body weight
  Lung relative weight: 0.9 ± 0.06 g/100 g body weight
[9]; 0.3 mg/kg/day, 21 days
  Differential leukocytes: Eosinophils: 1.0%
  Differential leukocytes: Lymphocytes: 49.3%
  Differential leukocytes: Monocytes: 1.0%
  Differential leukocytes: Neutrophils: 48.8%
  Erythrocytes: 8.9 ± 0.7 10^6cells/μL
  Total leukocytes: 1.5 ± 0.2* 10^3cells/μL

## Cn1ccnc1[S-].F[P-](F)(F)(F)(F)F.[Ru+2].c1ccc(-c2ccccn2)nc1.c1ccc(P(CCCCP(c2ccccc2)c2ccccc2)c2ccccc2)cc1 [Complex 1, [Ru(mmi)(bipy)(dppb)]PF6]
[1]; MRC-5 vs B16-F10
  Selectivity index (SI = IC50 [noncancerous cells]/IC50 [cancer cells]): 1.3
[1]; PBMCs vs B16-F10
  Selectivity index (SI = IC50 [noncancerous cells]/IC50 [cancer cells]): 1.5
[2]; read-out: IC50 and 95% CI, HepG2, 72 h
  IC50: 2600 nM
[3]; PBMCs vs K-562
  Selectivity index (SI = IC50 [noncancerous cells]/IC50 [cancer cells]): 1.9
[3]; read-out: IC50 and 95% CI, K-562, 72 h
  IC50: 1400 nM
[4]
  IC50: 6500 nM
[5]
  IC50: 1100 nM
[6]
  IC50: 700 nM
[7]; 5 μM, 24 h
  reduction of the number of viable cells vs negative control: 40.1%
[7]; 5 μM, 48 h
  reduction of the number of viable cells vs negative control: 80.9%
[7]; 10 μM, 24 h
  reduction of the number of viable cells vs negative control: 78.9%
[7]; 10 μM, 48 h
  reduction of the number of viable cells vs negative control: 93.9%
[8]; 0.5 mg/kg/day i.p.
  mean tumor mass: 0.4 ± 0.1 g
[8]; 1 mg/kg/day i.p.
  mean tumor mass: 0.3 ± 0.1 g
[8]; 0.5 and 1 mg/kg/day i.p., 21 days
  tumor mass inhibition rates: 31.5–45.4%
[9]; 0.5 mg/kg/day
  Initial body weight: 21.7 ± 0.2 g
[9]; 0.5 mg/kg/day i.p., 21 days
  Final body weight: 20.4 ± 0.3 g
  Survival: 10/10
[9]; 1 mg/kg/day
  Initial body weight: 20.3 ± 0.2 g
[9]; 1 mg/kg/day i.p., 21 days
  Final body weight: 20.9 ± 0.4 g
  Survival: 10/10
[9]; 0.5 mg/kg/day, 21 days
  Differential leukocytes: Eosinophils: 0.7%
  Differential leukocytes: Lymphocytes: 36.4%
  Differential leukocytes: Monocytes: 39.9%
  Differential leukocytes: Neutrophils: 23.8%
  Erythrocytes: 10.5 ± 0.6 10^6cells/μL
  Total leukocytes: 2.3 ± 0.4 10^3cells/μL
[9]; 1 mg/kg/day, 21 days
  Differential leukocytes: Eosinophils: 1.4%
  Differential leukocytes: Lymphocytes: 55.5%
  Differential leukocytes: Monocytes: 20.1%
  Differential leukocytes: Neutrophils: 24.4%
  Erythrocytes: 6.7 ± 0.9 10^6cells/μL
  Total leukocytes: 3.9 ± 1.9 10^3cells/μL
